For assay [1], the target named is KRAS G12D (Homo sapiens, UniProt P01116, G12D). Description: GDP-GTP exchange assay (bodipy-GDP/GppNHp, SOS1), KRAS G12D. Type of assay: biochemical. How it is done:
(§1) The inhibitor potency of the exemplified compounds was determined in a fluorescence based guanine nucleotide exchange assay, which measures the exchange of bodipy-GDP (fluorescently labeled GOP) for GppNHp (Non-hydrolyzable GTP analog) to generate the active state of KRAS in the presence of SOS1 (guanine nucleotide exchange factor). Inhibitors were serially diluted in DMSO and a volume of 0.1 μL was transferred to the wells of a black low volume 384-well plate. 5 μL/well volume of bodipy-loaded KRAS G12D diluted to 2.5 nM in assay buffer (25 mM Hepes pH 7.5, 50 mM NaCl, 10 mM MgCl2 and 0.01% Brij-35) was added to the plate and pre-incubated with inhibitor for 4 h at r.t. Appropriate controls (enzyme with no inhibitor or with a G12D inhibitor) were included on the plate. The exchange was initiated by the addition of a 5 μL/well volume containing 1 mM GppNHp and 300 nM SOS1 in assay buffer. The 10 μL/well reaction concentration of the bodipy-loaded KRAS G12D, GppNHp, and SOS1 were 2.5 nM, 500 μM, and 150 nM, respectively. The reaction plates were incubated at r.t. for 2 h, a time estimated for complete GDP-GTP exchange in the absence of inhibitor. For the KRAS G12V mutant, similar guanine nucleotide exchange assays were used with 2.5 nM as final concentration for the bodipy loaded KRAS proteins and 3 h incubation after adding GppNHp-SOS1 mixture. A cyclic peptide described to selectively bind G12D mutant (Sakamoto et al., BBRC 484.3 (2017), 605-611) or internal compounds with confirmed binding were used as positive controls in the assay plates. Fluorescence intensities were measured on a PheraStar plate reader instrument (BMG Labtech) with excitation at 485 nm and emission at 520 nm.
(§2) Either GraphPad prism or Genedata Screener SmartFit was used to analyze the data. The IC50 values were derived by fitting the data to a four parameter logistic equation producing a sigmoidal dose-response curve with a variable Hill coefficient.
(§3) The symbol “†” indicates IC50≤100 nM, “††” indicates IC50>100 nM but ≤1 μM; and “†††” indicates IC50 is >1 μM but ≤5 μM, “††††” indicates IC50 is >5 μM but ≤10 μM. “NA” indicates IC50 not available.

The target in assay [2] is KRAS G12V (Homo sapiens, UniProt P01116, G12V). The assay is described as follows: GDP-GTP exchange assay (bodipy-GDP/GppNHp, SOS1), KRAS G12V. It counts as biochemical. How it is done: as §1, §2, §3
The mark [3] stands for this setting: bodipy-loaded KRAS G12D 2.5 nM, 4 h pre-incubation, value for the most potent isomer quoted for certain compounds, read-out: G12D (KRAS G12D exchange assay IC50).
The mark [4] stands for this setting: KRAS G12V mutant, value for the most potent isomer quoted for certain compounds, read-out: G12V (KRAS G12V exchange assay IC50).

SMILES strings stand for the structures. pIC50: −log10 of the molar value. Like-named read-outs stand apart in the source and are kept apart here.

KRAS G12D, sequence (P01116 1-188 isoform P01116-2 G12D): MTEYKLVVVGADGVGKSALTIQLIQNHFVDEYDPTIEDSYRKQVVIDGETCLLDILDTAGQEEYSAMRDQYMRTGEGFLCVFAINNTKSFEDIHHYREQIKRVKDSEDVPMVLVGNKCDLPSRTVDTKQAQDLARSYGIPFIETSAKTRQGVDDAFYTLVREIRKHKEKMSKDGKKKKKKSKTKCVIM
KRAS G12V, sequence (P01116 1-188 isoform P01116-2 G12V): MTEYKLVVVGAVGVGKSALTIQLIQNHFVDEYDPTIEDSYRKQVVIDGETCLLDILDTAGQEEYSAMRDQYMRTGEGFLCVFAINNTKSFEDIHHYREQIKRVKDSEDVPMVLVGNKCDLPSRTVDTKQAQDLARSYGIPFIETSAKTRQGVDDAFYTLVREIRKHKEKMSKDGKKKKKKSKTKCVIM

Regarding `Cc1nc2c(F)c(-c3cccc(Cl)c3Cl)c(CCC#N)cc2c2c1cc([C@H]1C[C@H](OCc3ccnc(C(F)(F)F)c3)CN1C(=O)C1CC1)n2[C@H]1[C@H]2CN[C@@H]1C2` [Example 259], the pIC50 in assay [1] (setting [3]) and in assay [2] (setting [4]) was ≥ 7.00 in each case.

With `Cc1ncn([C@H]2C[C@H](c3cc4c(C)nc5c(F)c(-c6cccc(Cl)c6Cl)c(CCC#N)cc5c4n3[C@H]3[C@H]4CN[C@@H]3C4)N(C(=O)C3CC3)C2)n1` [Example 277], the pIC50 in assay [1] (setting [3]) and in assay [2] (setting [4]) was ≥ 7.00 each time.

On to `CO[C@H]1C[C@H](CO[C@H]2C[C@H](c3cc4c(C)nc5c(F)c(-c6cccc(Cl)c6Cl)c(CCC#N)cc5c4n3[C@H]3[C@H]4CN[C@@H]3C4)N(C(=O)C3CC3)C2)C1` [Example 401], for which the negative logarithm of the IC50 (pIC50) in assay [1] (setting [3]) and in assay [2] (setting [4]) was ≥ 7.00 each time.

`Cc1nc2c(F)c(-c3cccc(Cl)c3Cl)c(CCC#N)cc2c2c1cc([C@H]1C[C@H](n3ccc(C#N)n3)CN1C(=O)C1CC1)n2[C@H]1[C@H]2CN[C@@H]1C2` [Example 317]: the pIC50 in assay [1] (setting [3]) and in assay [2] (setting [4]) was ≥ 7.00 throughout.

In the case of `[2H]C([2H])(O[C@H]1C[C@H](c2cc3c(C)nc4c(F)c(-c5cccc(Cl)c5Cl)c(CCC#N)cc4c3n2[C@H]2[C@H]3CN[C@@H]2C3)N(C(=O)C2CC2)C1)c1nscc1C` [Example 233], the pIC50 in assay [1] (setting [3]) and in assay [2] (setting [4]) was ≥ 7.00 each time.

Consider `N#CCCc1cc2c(nc(-c3ccc(N4CCCC4=O)nc3)c3cc([C@H]4C[C@H](OCc5c(F)cccc5F)CN4C(=O)C4CC4)n([C@H]4[C@H]5CN[C@@H]4C5)c32)c(F)c1-c1cccc(Cl)c1Cl` [Example 207], for which the pIC50 (in general, the IC50 on a negative log10 scale, so that one unit is a factor of ten) was 6.00 to 7.00 in assay [1] (setting [3]) and ≥ 7.00 in assay [2] (setting [4]).

`Cc1nc2c(F)c(-c3cccc(Cl)c3Cl)c(CCC#N)cc2c2c1cc([C@H]1C[C@H](OCc3cccnc3N)CN1C(=O)C1CC1)n2[C@H]1[C@H]2CN[C@@H]1C2` [Example 149]: the pIC50 in assay [1] (setting [3]) and in assay [2] (setting [4]) was ≥ 7.00 each time.

With `COc1cnn([C@H]2C[C@H](c3cc4c(C)nc5c(F)c(-c6cccc(Cl)c6Cl)c(CCC#N)cc5c4n3[C@H]3[C@H]4CN[C@@H]3C4)N(C(=O)C3CC3)C2)c1` [Example 352], the pIC50 in assay [1] (setting [3]) and in assay [2] (setting [4]) was ≥ 7.00 each time.

Consider `Cc1nc2c(F)c(-c3cccc(Cl)c3Cl)c(CCC#N)cc2c2c1cc([C@H]1C[C@H](n3cc(C#N)nn3)CN1C(=O)C1CC1)n2[C@H]1[C@H]2CN[C@@H]1C2` [Example 345], for which the pIC50 in assay [1] (setting [3]) and in assay [2] (setting [4]) was ≥ 7.00 in each case.

Regarding `Cc1nc2c(F)c(-c3cccc(Cl)c3Cl)c(CCC#N)cc2c2c1cc([C@H]1C[C@H](Oc3ccc(C#N)cc3F)CN1C(=O)C1CC1)n2[C@H]1[C@H]2CN[C@@H]1C2` [Example 291], the pIC50 in assay [1] (setting [3]) and in assay [2] (setting [4]) was ≥ 7.00 in each case.

In the case of `COC(=O)C1CCC(c2cn([C@H]3C[C@H](c4cc5c(C)nc6c(F)c(-c7cccc(Cl)c7Cl)c(CCC#N)cc6c5n4[C@H]4[C@H]5CN[C@@H]4C5)N(C(=O)C4CC4)C3)nn2)C1` (stereo partly drawn) [Example 391], the pIC50 in assay [1] (setting [3]) and in assay [2] (setting [4]) was ≥ 7.00 in each case.

Regarding `COc1ncnc2c1ccn2[C@H]1C[C@H](c2cc3c(C)nc4c(F)c(-c5cccc(Cl)c5Cl)c(CCC#N)cc4c3n2[C@H]2[C@H]3CN[C@@H]2C3)N(C(=O)C2CC2)C1` [Example 73, 3-(1-((1R,4R,5S)-2-Azabicyclo[2.1.1]hexan-5-yl)-2-((2R,4S)-1-(cyclopropanecarbonyl)-4-(4-methoxy-7H-pyrrolo[2,3-d]pyrimidin-7-yl)pyrrolidin-2-yl)-7-(2,3-dichlorophenyl)-6-fluoro-4-methyl-1H-pyrrolo[3,2-c]quinolin-8-yl)propanenitrile], the pIC50 was ≥ 7.00 in assay [1] (Table H, column G12D, for compounds isolated as several atropisomers/diastereoisomers the value for the most potent isomer is quoted, read-out: KRAS G12D exchange assay IC50) and ≥ 7.00 in assay [2] (Table H, column G12V, for compounds isolated as several atropisomers/diastereoisomers the value for the most potent isomer is quoted, read-out: KRAS G12V exchange assay IC50).

As to `COc1ncc(C(F)(F)F)cc1O[C@H]1C[C@H](c2cc3c(C)nc4c(F)c(-c5cccc(Cl)c5Cl)c(CCC#N)cc4c3n2[C@H]2[C@H]3CN[C@@H]2C3)N(C(=O)C2CC2)C1` [Example 451], the pIC50 in assay [1] (setting [3]) and in assay [2] (setting [4]) was ≥ 7.00 throughout.

Consider `CC(=O)N(C)Cc1cn([C@H]2C[C@H](c3cc4c(C)nc5c(F)c(-c6cccc(Cl)c6Cl)c(CCC#N)cc5c4n3[C@H]3[C@H]4CN[C@@H]3C4)N(C(=O)C3CC3)C2)nn1` [Example 271], for which the pIC50 in assay [1] (setting [3]) and in assay [2] (setting [4]) was ≥ 7.00 each time.

With `COc1ccc(O[C@H]2C[C@H](c3cc4c(C)nc5c(F)c(-c6cccc(Cl)c6Cl)c(CCC#N)cc5c4n3[C@H]3[C@H]4CN[C@@H]3C4)N(C(=O)C3CC3)C2)cn1` [Example 301], the pIC50 in assay [1] (setting [3]) and in assay [2] (setting [4]) was ≥ 7.00 each time.

With `Cc1nc2c(F)c(-c3cccc(Cl)c3Cl)c(CCC#N)cc2c2c1cc([C@H]1C[C@H](OCC3CCCC3)CN1C(=O)C1CC1)n2[C@H]1[C@H]2CN[C@@H]1C2` [Example 153], the pIC50 in assay [1] (setting [3]) and in assay [2] (setting [4]) was ≥ 7.00 throughout.

Take `Cc1nc2c(F)c(-c3cccc(Cl)c3Cl)c(CCC#N)cc2c2c1cc([C@H]1C[C@H](n3cc(C4CNC(=O)C4)nn3)CN1C(=O)C1CC1)n2[C@H]1[C@H]2CN[C@@H]1C2` (stereo partly drawn) [Example 273]: the pIC50 in assay [1] (setting [3]) and in assay [2] (setting [4]) was ≥ 7.00 throughout.

As to `Cc1nc2c(F)c(-c3cccc(Cl)c3Cl)c(CCC#N)cc2c2c1cc([C@H]1C[C@H](Oc3ccc(F)cc3)CN1C(=O)C1CC1)n2[C@H]1[C@H]2CN[C@@H]1C2` [Example 120], the pIC50 in assay [1] (setting [3]) and in assay [2] (setting [4]) was ≥ 7.00 throughout.

As to `COc1ccc(CO[C@H]2C[C@H](c3cc4c(C)nc5c(F)c(-c6cccc(Cl)c6Cl)c(CCC#N)cc5c4n3[C@H]3[C@H]4CN[C@@H]3C4)N(C(=O)C3CC3)C2)c(C#N)c1` [Example 252], the pIC50 in assay [1] (setting [3]) and in assay [2] (setting [4]) was ≥ 7.00 throughout.

`Cc1nc2c(F)c(-c3cccc(Cl)c3Cl)c(CCC#N)cc2c2c1cc([C@H]1C[C@H](OCc3ccc(C(F)(F)F)nc3)CN1C(=O)C1CC1)n2[C@H]1[C@H]2CN[C@@H]1C2` [Example 260]: the pIC50 in assay [1] (setting [3]) and in assay [2] (setting [4]) was ≥ 7.00 throughout.

Take `Cc1nc2c(F)c(-c3cccc(Cl)c3Cl)c(CCC#N)cc2c2c1cc([C@H]1C[C@H](OCc3cc(F)ccc3C#N)CN1C(=O)C1CC1)n2[C@H]1[C@H]2CN[C@@H]1C2` [Example 157]: the negative logarithm of the IC50 (pIC50) in assay [1] (setting [3]) and in assay [2] (setting [4]) was ≥ 7.00 in each case.

On to `Cc1nc2c(F)c(-c3cccc(Cl)c3Cl)c(CCC#N)cc2c2c1cc([C@H]1C[C@H](n3ccc(CC#N)n3)CN1C(=O)C1CC1)n2[C@H]1[C@H]2CN[C@@H]1C2` [Example 316], for which the pIC50 in assay [1] (setting [3]) and in assay [2] (setting [4]) was ≥ 7.00 throughout.

Consider `Cc1nc2c(F)c(-c3cccc(Cl)c3Cl)c(CCC#N)cc2c2c1cc([C@H]1C[C@H](OC3CCCC3)CN1C(=O)C1CC1)n2[C@H]1[C@H]2CN[C@@H]1C2` [Example 238], for which the pIC50 in assay [1] (setting [3]) and in assay [2] (setting [4]) was ≥ 7.00 in each case.

As for `Cc1cnn([C@H]2C[C@H](c3cc4c(C)nc5c(F)c(-c6cccc(Cl)c6Cl)c(CCC#N)cc5c4n3[C@H]3[C@H]4CN[C@@H]3C4)N(C(=O)C3CC3)C2)n1` [Example 344], the pIC50 in assay [1] (setting [3]) and in assay [2] (setting [4]) was ≥ 7.00 each time.

As for `Cc1nc2c(F)c(-c3cccc(Cl)c3Cl)c(CCC#N)cc2c2c1cc([C@H]1C[C@H](Oc3cccc(C(=O)N4CCCC4)c3)CN1C(=O)C1CC1)n2[C@H]1[C@H]2CN[C@@H]1C2` [Example 223], the negative logarithm of the IC50 (pIC50) in assay [1] (setting [3]) and in assay [2] (setting [4]) was ≥ 7.00 each time.

As for `Cc1nc2c(F)c(-c3cccc(Cl)c3Cl)c(CCC#N)cc2c2c1cc([C@H]1C[C@H](n3cc(C45CC(N)(C4)C5)nn3)CN1C(=O)C1CC1)n2[C@H]1[C@H]2CN[C@@H]1C2` [Example 275], the pIC50 in assay [1] (setting [3]) and in assay [2] (setting [4]) was ≥ 7.00 throughout.

For `Cc1nc2c(F)c(-c3cccc(Cl)c3Cl)c(CCC#N)cc2c2c1cc([C@H]1C[C@H](OC(C)c3c(F)cccc3F)CN1C(=O)C1CC1)n2[C@H]1[C@H]2CN[C@@H]1C2` (stereo partly drawn) [Example 227], the pIC50 in assay [1] (setting [3]) and in assay [2] (setting [4]) was ≥ 7.00 in each case.

In the case of `Cc1nc2c(F)c(-c3cccc(Cl)c3Cl)c(CCC#N)cc2c2c1cc([C@H]1C[C@H](OCc3ccn(C)n3)CN1C(=O)C1CC1)n2[C@H]1[C@H]2CN[C@@H]1C2` [Example 101], the pIC50 in assay [1] (setting [3]) and in assay [2] (setting [4]) was ≥ 7.00 throughout.

As for `Cc1nc2c(F)c(-c3cccc(Cl)c3Cl)c(CCC#N)cc2c2c1cc([C@H]1C[C@H](OC(=O)c3ccccc3)CN1C(=O)C1CC1)n2[C@H]1[C@H]2CN[C@@H]1C2` [Example 270], in assay [1] (setting [3]), the pIC50 was ≥ 7.00.

These data come from US20240390340A1 (INCYTE CORPORATION, priority 2023, published 2024).
